Patent publication US8952024B2, “Herbicidal pyrimidone derivatives” (E I du Pont de Nemours and Company, priority 2009, dated 2015)

Assays:
Format in all cases: in vivo
[1] = test system: umbrella sedge (Cyperus difformis); assay: Test B flooded paddy test; settings: for Plant response rating, Flood, Sedge, Umbrella: 250 g ai/ha, flooded paddy test, visual rating on 0 to 100 scale (0 no effect, 100 complete control) after 13 to 15 days; for Plant response rating, Sedge, Umbrella: Flood (flooded paddy test), 62 g ai/ha, scale of 0 to 100 where 0 is no effect and 100 is complete control, 13 to 15 days
Method in brief: (§1)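 Post-flood paddy application: compounds are introduced into water 3 cm deep over the soil, reaching plants at the 2-leaf stage. The water level is maintained, and after 13–15 days under greenhouse conditions, response is judged by eye relative to controls, where 100 means complete control.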

[2] = test system: barnyardgrass (Echinochloa crus-galli); assay: Test B flooded paddy test; settings: for Plant response rating, Flood, Barnyardgrass: 250 g ai/ha, flooded paddy test, visual rating on 0 to 100 scale (0 no effect, 100 complete control) after 13 to 15 days; for Plant response rating, Barnyardgrass: Flood (flooded paddy test), 62 g ai/ha, scale of 0 to 100 where 0 is no effect and 100 is complete control, 13 to 15 days
Method in brief: as §1

rice (Oryza sativa) = assay: Test B flooded paddy test; settings: for Plant response rating, Flood, Rice: 250 g ai/ha, flooded paddy test, visual rating on 0 to 100 scale (0 no effect, 100 complete control) after 13 to 15 days; for Plant response rating, Rice: Flood (flooded paddy test), 62 g ai/ha, scale of 0 to 100 where 0 is no effect and 100 is complete control, 13 to 15 days
Method in brief: as §1

[3] = test system: ducksalad (Heteranthera limosa); assay: Test B flooded paddy test; settings: for Plant response rating, Flood, Ducksalad: 250 g ai/ha, flooded paddy test, visual rating on 0 to 100 scale (0 no effect, 100 complete control) after 13 to 15 days; for Plant response rating, Ducksalad: Flood (flooded paddy test), 62 g ai/ha, scale of 0 to 100 where 0 is no effect and 100 is complete control, 13 to 15 days
Method in brief: as §1

[4] = test system: barnyardgrass (Echinochloa crus-galli); assay: Test A pre-/postemergence plant response; settings: for Barnyardgrass plant response rating: visual injury, 0 to 100 scale (0 no effect, 100 complete control), approx. ten days
Method in brief: (§2)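 Plants grown from seed in a loam soil and sand mix received test compounds both as a preemergence soil spray and, at the same time, as a postemergence spray at the one- to two-leaf stage. Injury was judged visually against untreated controls roughly ten days later, 0 meaning no effect and 100 complete control.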

corn (Zea mays) = assay: Test A pre-/postemergence plant response; settings: for Corn plant response rating: visual injury, 0 to 100 scale (0 no effect, 100 complete control), approx. ten days
Method in brief: as §2

[5] = test system: morningglory (Ipomoea spp.); assay: Test A pre-/postemergence plant response; settings: for Morningglory plant response rating: visual injury, 0 to 100 scale (0 no effect, 100 complete control), approx. ten days
Method in brief: as §2

[6] = test system: velvetleaf (Abutilon theophrasti); assay: Test A pre-/postemergence plant response; settings: for Velvetleaf plant response rating: visual injury, 0 to 100 scale (0 no effect, 100 complete control), approx. ten days
Method in brief: as §2

[7] = test system: wheat (Triticum aestivum); assay: Test A pre-/postemergence plant response; settings: for Wheat plant response rating: visual injury, 0 to 100 scale (0 no effect, 100 complete control), approx. ten days
Method in brief: as §2

[8] = test system: giant foxtail (Setaria faberii); assay: Test A pre-/postemergence plant response; settings: for Foxtail, Giant plant response rating: visual injury, 0 to 100 scale (0 no effect, 100 complete control), approx. ten days
Method in brief: as §2

[9] = test system: pigweed (Amaranthus retroflexus); assay: Test A pre-/postemergence plant response; settings: for Pigweed plant response rating: visual injury, 0 to 100 scale (0 no effect, 100 complete control), approx. ten days
Method in brief: as §2

[10] = test system: large crabgrass (Digitaria sanguinalis); assay: Test A pre-/postemergence plant response; settings: for Crabgrass, Large plant response rating: visual injury, 0 to 100 scale (0 no effect, 100 complete control), approx. ten days
Method in brief: as §2

[11] = Postemergence, 125 g ai/ha, 0 to 100 scale where 0 is no effect and 100 is complete control
[12] = Preemergence, 125 g ai/ha, 0 to 100 scale, 0 = no effect, 100 = complete control
[13] = Preemergence, 500 g ai/ha, 0 to 100 scale, 0 = no effect, 100 = complete control

SMILES | Plant response rating, Flood, Sedge, Umbrella [1] | Plant response rating, Sedge, Umbrella [1] | Plant response rating, Flood, Barnyardgrass [2] | Plant response rating, Barnyardgrass [2] | Plant response rating, Flood, Rice (rice (Oryza sativa)) | Plant response rating, Rice (rice (Oryza sativa)) | Plant response rating, Flood, Ducksalad [3] | Plant response rating, Ducksalad [3] | Plant response rating, Barnyardgrass [4, 11] | Barnyardgrass plant response rating ([4]; Postemergence, 500 g ai/ha) | Plant response rating, Barnyardgrass [4, 12] | Plant response rating, Barnyardgrass [4, 13] | Plant response rating, Corn (corn (Zea mays); [11]) | Corn plant response rating (corn (Zea mays); Postemergence, 500 g ai/ha) | Plant response rating, Corn (corn (Zea mays); [12]) | Plant response rating, Corn (corn (Zea mays); [13]) | Plant response rating, Morningglory [5, 11] | Morningglory plant response rating ([5]; Postemergence, 500 g ai/ha) | Plant response rating, Morningglory [5, 13] | Plant response rating, Velvetleaf [6, 11] | also measured
O=C1CCCC(O)=C1C(=O)c1cnc(-c2cccc(F)c2)n(C2CCCCC2)c1=O [Compound 187] | 100 | 95 | 80 | 45 | 70 | 15 | 100 | 95 | 90 | 100 | 20 | 90 | 0 | 50 | 0 | 0 | 100 | 100 | 90 | 100 | Plant response rating, Morningglory [5, 12]: 80; Velvetleaf plant response rating ([6]; Postemergence, 500 g ai/ha): 100; Plant response rating, Velvetleaf [6, 12]: 70; Plant response rating, Velvetleaf [6, 13]: 100; Plant response rating, Wheat [7, 11]: 0; Wheat plant response rating ([7]; Postemergence, 500 g ai/ha): 0; Plant response rating, Wheat [7, 12]: 0; Plant response rating, Wheat [7, 13]: 0; Plant response rating, Foxtail, Giant [8, 11]: 80; Foxtail, Giant plant response rating ([8]; Postemergence, 500 g ai/ha): 90; Plant response rating, Foxtail, Giant [8, 12]: 30; Plant response rating, Foxtail, Giant [8, 13]: 90; Plant response rating, Pigweed [9, 11]: 100; Pigweed plant response rating ([9]; Postemergence, 500 g ai/ha): 100; Plant response rating, Pigweed [9, 12]: 60; Plant response rating, Pigweed [9, 13]: 70; Plant response rating, Crabgrass, Large [10, 11]: 90; Crabgrass, Large plant response rating ([10]; Postemergence, 500 g ai/ha): 100; Plant response rating, Crabgrass, Large [10, 12]: 30; Plant response rating, Crabgrass, Large [10, 13]: 90
O=C1CCCC(O)=C1C(=O)c1cnc(-c2cccs2)n(C2CCCCC2)c1=O [Compound 189] | 100 | 95 | 70 | 30 | 60 | 20 | 100 | 100 | 90 | 90 | 20 | 90 | 10 | 40 | 0 | 0 | 100 | 100 | 80 | 100 | Velvetleaf plant response rating ([6]; Postemergence, 500 g ai/ha): 100; Plant response rating, Velvetleaf [6, 12]: 70; Plant response rating, Velvetleaf [6, 13]: 100; Plant response rating, Wheat [7, 11]: 0; Wheat plant response rating ([7]; Postemergence, 500 g ai/ha): 0; Plant response rating, Wheat [7, 12]: 0; Plant response rating, Wheat [7, 13]: 0; Plant response rating, Foxtail, Giant [8, 11]: 80; Foxtail, Giant plant response rating ([8]; Postemergence, 500 g ai/ha): 90; Plant response rating, Foxtail, Giant [8, 12]: 30; Plant response rating, Foxtail, Giant [8, 13]: 60; Plant response rating, Pigweed [9, 11]: 100; Pigweed plant response rating ([9]; Postemergence, 500 g ai/ha): 100; Plant response rating, Pigweed [9, 12]: 70; Plant response rating, Pigweed [9, 13]: 100; Plant response rating, Crabgrass, Large [10, 11]: 90; Crabgrass, Large plant response rating ([10]; Postemergence, 500 g ai/ha): 90; Plant response rating, Crabgrass, Large [10, 12]: 30; Plant response rating, Crabgrass, Large [10, 13]: 80
